Test results from patent US9938278B2, “FXR (NR1H4) modulating compounds” (Gilead Sciences, Inc., priority 2014, dated 2018).

Biological target: T1, human FXR alpha ligand binding domain (Homo sapiens, UniProt Q96RI1)
T1 construct: made in house; host or cells: E. coli BL21 (DE3), vector pDEST15
T1 sequence (Q96RI1 187-472 isoform Q96RI1-2): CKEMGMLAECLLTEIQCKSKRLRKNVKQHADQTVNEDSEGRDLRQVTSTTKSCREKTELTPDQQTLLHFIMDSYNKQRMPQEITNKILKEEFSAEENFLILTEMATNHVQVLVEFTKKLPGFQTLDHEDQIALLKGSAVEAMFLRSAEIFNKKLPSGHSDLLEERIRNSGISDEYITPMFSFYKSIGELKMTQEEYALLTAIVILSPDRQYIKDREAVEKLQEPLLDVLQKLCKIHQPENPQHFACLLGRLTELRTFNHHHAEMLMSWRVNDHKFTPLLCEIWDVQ
Assay: FRET Activity Assay (ligand mediated cofactor peptide interaction)
Format: biochemical
Settings: LANCE time-resolved FRET; GST-FXR-LBD with biotinylated SRC-1 peptide (676-700); read-out: agonistic potential EC50
Experimental: Assays FRET Activity Assay Determination of a ligand mediated cofactor peptide interaction to quantify ligand binding to the nuclear receptor FXR was performed as follows: Preparation of human FXR alpha ligand binding domain: The human FXRalpha LBD was expressed in E. coli strain BL21 (DE3) as an N-terminally GST tagged fusion protein. The DNA encoding the FXR ligand binding domain was cloned into vector pDEST15 (Invitrogen). Expression was under control of an IPTG inducible T7 promoter. The amino acid boundaries of the ligand binding domain were amino acids 187-472 of Database entry NM_005123 (RefSeq). Expression and purification of the FXR-LBD: An overnight preculture of a transformed E. coli strain was diluted 1:20 in LB-Ampicillin medium and grown at 30° C. to an optical density of OD600=0.4-0.6. Gene expression was then induced by addition of 0.5 mM IPTG. […] The protein was analysed by SDS-Page.
The method measures the ability of putative ligands to modulate the interaction between the purified bacterial expressed FXR ligand binding domain (LBD) and a synthetic biotinylated peptide based on residues 676-700 of SRC-1 (LCD2, 676-700). […] The ligand binding domain (LBD) of FXR was expressed as fusion protein with GST in BL-21 cells using the vector pDEST15. […] The LANCE signal was detected by a Perkin Elmer VICTOR2VTM Multilabel Counter. […]

EC50: < 25 nM
Structure (SMILES): CC(C)n1nc(C(=O)O)cc1N1CCC(O)(c2ccc(OCc3c(-c4c(Cl)cccc4Cl)noc3C3CC3)cc2Cl)CC1 [Example 1, 5-(4-(2-Chloro-4-((5-cyclopropyl-3-(2,6-dichlorophenyl)isoxazol-4-yl)methoxy)phenyl)-4-hydroxypiperidin-1-yl)-1-isopropyl-1H-pyrazole-3-carboxylic Acid]
